Measurements reported in ChEMBL document CHEMBL5038629, “Light-Triggered Fluorescence Self-Reporting Nitric Oxide Release from Coumarin Analogues for Accelerating Wound Healing and Synergistic Antimicrobial Applications” (J Med Chem, 2022).
Calls of active or inactive are those of the source. The calls are words filed in the database; no cut-off is given here.

Key:
[1] = system: Staphylococcus aureus; assay: Inhibition of biofilm formation in methicillin-resistant Staphylococcus aureus assessed as decrease in biofilm mass at 10 uM upon exposure to UV light irradiation and measured after 48 hrs by dilution plate coating method; type: functional; details: light or radiation study
[2] = system: Staphylococcus aureus; assay: Inhibition of biofilm formation in methicillin-resistant Staphylococcus aureus assessed as biofilm dispersal effect at 10 uM incubated for 5 hrs followed by exposure to UV light irradiation for 1 min by crystal violet staining based analysis; type: functional; design: scale not given: the % may be the effect or the level left; details: time 301 min, 5.017 h
[3] = NO releasing activity upon exposure to UV light irradiation in presence of Phe by fluorescence based analysis; type: functional
[4] = NO releasing activity assessed as increase in fluorescence intensity upon exposure to UV light at 1 to 10 uM measured after 30 mins by fluorescence based analysis; type: functional; details: dose 1-10 µM
[5] = Photolysis of compound in DMSO/PBS assessed as 4-methyl-7-(2-nitrobenzylamino)-2H-chromen-2-one and AMC formation along with NO release upon exposure to UV light by mass spectrometry; type: functional
[6] = system: HUVEC; assay: Induction of angiogenesis in human HUVEC cells assessed as increase in cell migration rate upon UV light irradiation and measured after 12 to 24 hrs by cell scratch test; type: functional, cell-based; details: time 12-24 hrs
[7] = system: RAW264.7; assay: Induction of angiogenesis in mouse RAW264.7 cells assessed as increase in cell proliferation upto 60 uM upon exposure to UV light irradiation and measured after 8 hrs by CCK8 assay; type: functional, cell-based; details: dose microM <=60, time 8.0 hrs
[8] = NO releasing activity assessed as increase in fluorescence intensity at 420 nm upon exposure to UV light measured after 0 to 5 mins by fluorescence based analysis; type: functional; details: time 0-5 min
[9] = NO releasing activity upon exposure to UV light irradiation in presence of Cys by fluorescence based analysis; type: functional
[10] = NO releasing activity in IPA solvent upon exposure to UV light irradiation by fluorescence based analysis; type: functional
[11] = NO releasing activity upon exposure to UV light irradiation in presence of Ser by fluorescence based analysis; type: functional
[12] = NO releasing activity in DMSO solvent upon exposure to UV light irradiation by fluorescence based analysis; type: functional
[13] = NO releasing activity assessed as NO release efficiency at 100 uM by Griess assay relative to NaNO2; type: functional
[14] = NO releasing activity in TCM solvent upon exposure to UV light irradiation by fluorescence based analysis; type: functional
[15] = system: L02; assay: Cytotoxicity against human L02 cells assessed as reduction in cell viability upto 60 uM measured after 8 hrs by CCK8 assay; type: functional, cell-based; details: dose microM <=60, time 8.0 hrs
[16] = system: Staphylococcus aureus; assay: Inhibition of biofilm formation in methicillin-resistant Staphylococcus aureus assessed as decrease in biofilm mass at 10 uM upon exposure to UV light irradiation and measured after 48 hrs in presence of levofloxacin by dilution plate coating method; type: functional; details: light or radiation study
[17] = NO releasing activity assessed as NO release efficiency at 10 uM by Griess assay relative to NaNO2; type: functional
[18] = NO releasing activity upon exposure to UV light irradiation in presence of Ala by fluorescence based analysis; type: functional
[19] = Photolysis of compound in DMSO/PBS assessed as 4-methyl-7-(2-nitrobenzylamino)-2H-chromen-2-one and AMC formation along with NO release upon exposure to UV light and measured after 30 mins by HPLC analysis; type: functional
[20] = system: Staphylococcus aureus; assay: Inhibition of biofilm formation in methicillin-resistant Staphylococcus aureus assessed as biofilm dispersal effect at 10 uM incubated for 5 hrs followed by exposure to UV light irradiation for 1 min in presence of levofloxacin by crystal violet staining based analysis; type: functional; design: scale not given: the % may be the effect or the level left; details: time 301 min, 5.017 h
[21] = system: Mus musculus; assay: (§1) Acceleration of wound healing in methicillin-resistant Staphylococcus aureus infected CD1 mouse assessed as boosted collagen deposition and granulation tissue in skin using UV light-irradiated compound at 10 uM, sc on days 0, 3, 7 and 14 and measured on day 14 by H and E staining based analysis; type: functional, organism-based; details: time 15.0 day
[22] = NO releasing activity upon exposure to UV light irradiation in presence of GSH by fluorescence based analysis; type: functional
[23] = NO releasing activity upon exposure to UV light irradiation in presence of NaSO4 by fluorescence based analysis; type: functional
[24] = system: Staphylococcus aureus; assay: Inhibition of biofilm formation in methicillin-resistant Staphylococcus aureus assessed as increase in planktonic bacteria at 10 uM upon exposure to UV light irradiation and measured after 48 hrs in presence of levofloxacin by NB plate based imaging analysis; type: functional; design: scale not given: the % may be the effect or the level left
[25] = NO releasing activity upon exposure to UV light irradiation in presence of […] by fluorescence based analysis; type: functional
[26] = system: HUVEC; assay: Induction of angiogenesis in human HUVEC cells assessed as increase in tube formation upon exposure to UV light irradiation measured after 24 hrs; type: functional, cell-based
[27] = NO releasing activity in EA solvent upon exposure to UV light irradiation by fluorescence based analysis; type: functional
[28] = Toxicity in methicillin-resistant Staphylococcus aureus-infected CD1 mouse assessed as change in body weight using UV light-irradiated compound at 10 uM, sc on days 0, 3, 7 and 14; type: organism-based; details: in vivo, 360 h, time 15 day
[29] = system: HUVEC; assay: Cytotoxicity against human HUVEC cells assessed as reduction in cell viability upto 60 uM measured after 8 hrs by CCK8 assay; type: functional, cell-based; details: dose microM <=60, time 8.0 hrs
[30] = NO releasing activity upon exposure to UV light irradiation in presence of Asp by fluorescence based analysis; type: functional
[31] = system: Staphylococcus aureus; assay: Antibacterial activity against methicillin-resisitant Staphylococcus aureus assessed as wrinkled bacterial membrane formation at 10 uM incubated for 5 hrs followed by exposure to UV light irradiation for 1 min in presence of levofloxacin by scanning electron microscopy; type: functional, organism-based; details: time 301.0 min
[32] = system: HUVEC; assay: Induction of angiogenesis in human HUVEC cells assessed as increase in cell proliferation upto 60 uM upon exposure to UV light irradiation and measured after 8 hrs by CCK8 assay; type: functional, cell-based; details: dose microM <=60, time 8.0 hrs
[33] = NO releasing activity upon exposure to UV light irradiation in presence of Trp by fluorescence based analysis; type: functional
[34] = NO releasing activity assessed as NO release efficiency at 40 uM by Griess assay relative to NaNO2; type: functional
[35] = NO releasing activity in PBS buffer of 20% DMSO at 20 uM upon exposure to UV light irradiation by amperometric method; type: functional
[36] = NO releasing activity upon exposure to UV light irradiation at powers from 3 to 15 mW/cm2 by fluorescence based analysis; type: functional
[37] = NO releasing activity upon exposure to UV light irradiation in presence of HClO by fluorescence based analysis; type: functional
[38] = NO releasing activity assessed as NO release efficiency at 80 uM by Griess assay relative to NaNO2; type: functional
[39] = NO releasing activity upon exposure to UV light irradiation in presence of His by fluorescence based analysis; type: functional
[40] = system: Mus musculus; assay: Acceleration of wound healing in methicillin-resistant Staphylococcus aureus infected CD1 mouse assessed as increase in wound healing rate using UV light-irradiated compound at 10 uM, sc on days 0, 3, 7 and 14 in presence of 10 uM levofloxacin; type: functional, organism-based; details: time 15.0 day
[41] = system: RAW264.7; assay: Cytotoxicity against mouse RAW264.7 cells assessed as reduction in cell viability upto 60 uM measured after 8 hrs by CCK8 assay; type: functional, cell-based; details: dose microM <=60, time 8.0 hrs
[42] = NO releasing activity upon exposure to UV light irradiation at pH 4 to 8 by fluorescence based analysis; type: functional
[43] = system: L02; assay: Induction of angiogenesis in human L02 cells assessed as increase in cell proliferation upto 60 uM upon exposure to UV light irradiation and measured after 8 hrs by CCK8 assay; type: functional, cell-based; details: dose microM <=60, time 8.0 hrs
[44] = NO releasing activity upon exposure to UV light irradiation at 50 to 70 degC measured after 4 to 8 hrs by fluorescence based analysis; type: functional; details: time 4-8 hrs
[45] = Stability of the compound in human HepG2 cells at 10 uM by DAQ probe based fluorescence analysis; type: ADME, cell-based; details: hepg2, 10 µM
[46] = NO releasing activity in Tol solvent upon exposure to UV light irradiation by fluorescence based analysis; type: functional
[47] = NO releasing activity assessed as NO release efficiency at 20 uM by Griess assay relative to NaNO2; type: functional
[48] = system: L02; assay: NO releasing activity in human L02 cells assessed as increase in red fluorescence intensity at 10 uM upon exposure to UV light irradiation for 10s by DAQ probe based fluorescence analysis; type: ADME, cell-based; details: l02, 10 s
[49] = NO releasing activity in MeOH solvent upon exposure to UV light irradiation by fluorescence based analysis; type: functional
[50] = system: HepG2; assay: NO releasing activity in human HepG2 cells assessed as increase in red fluorescence intensity at 10 uM upon exposure to UV light irradiation for 10s by DAQ probe based fluorescence analysis; type: ADME, cell-based; details: hepg2, 10 s
[51] = NO releasing activity assessed as increase in fluorescence intensity upon exposure to UV light at 0 to 18 uM by fluorescence based analysis; type: functional; details: dose 0-18 µM
[52] = system: Mus musculus; assay: as §1, with “and 14 in presence of levofloxacin and measured” for “and 14 and measured”; type: functional, organism-based; details: time 15.0 day
[53] = NO releasing activity at 20 uM upon exposure to UV light irradiation for 5 mins by EPR spectroscopy; type: functional
[54] = NO releasing activity upon exposure to UV light irradiation in presence of Arg by fluorescence based analysis; type: functional
[55] = NO releasing activity upon exposure to UV light irradiation in presence of Hcy by fluorescence based analysis; type: functional
[56] = Stability of the compound in human L02 cells at 10 uM by DAQ probe based fluorescence analysis; type: ADME, cell-based; details: l02, 10 µM
[57] = NO releasing activity upon exposure to UV light irradiation in presence of Na2S by fluorescence based analysis; type: functional
[58] = NO releasing activity assessed as NO release efficiency at 60 uM by Griess assay relative to NaNO2; type: functional
[59] = NO releasing activity in CAN solvent upon exposure to UV light irradiation by fluorescence based analysis; type: functional
[60] = NO releasing activity in DMK solvent upon exposure to UV light irradiation by fluorescence based analysis; type: functional
[61] = system: Mus musculus; assay: Induction of angiogenesis in methicillin-resistant Staphylococcus aureus infected CD1 mouse assessed as increase in CD31 surface expression in skin by measuring increase in green fluorescence intensity using UV light-irradiated compound at 10 uM, sc on days 0, 3, 7 and 14 in presence of levofloxacin and measured on day 14 by immunofluorescence staining based analysis; type: functional, organism-based; details: time 15.0 day
[62] = NO releasing activity at 100 uM upon exposure to UV light irradiation by DAF-2 probe based fluorescence analysis; type: functional
[63] = system: Staphylococcus aureus; assay: Inhibition of biofilm formation in methicillin-resistant Staphylococcus aureus assessed as increase in planktonic bacteria at 10 uM upon exposure to UV light irradiation and measured after 48 hrs by NB plate based imaging analysis; type: functional, organism-based
[64] = NO releasing activity in Diox-solvent upon exposure to UV light irradiation by fluorescence based analysis; type: functional

C[C@H]1COc2c(N3CCN(C)CC3)c(F)cc3c(=O)c(C(=O)O)cn1c23.C[C@H]1COc2c(N3CCN(C)CC3)c(F)cc3c(=O)c(C(=O)O)cn1c23.O [LEVOFLOXACIN]
inhibition at 10 µM [1]: 19%
Activity [2]: 15%

Cc1cc(=O)oc2cc(N(Cc3ccccc3[N+](=O)[O-])N=O)ccc12
Drug metabolism [3]: Metabolite detected
Drug metabolism [4]: Metabolite detected
Drug metabolism [5]: Metabolite detected
Activity [6]: Active
Activity [7]: Active
Drug metabolism [8]: Metabolite detected
Drug metabolism [9]: Metabolite detected
Drug metabolism [10]: Metabolite detected
Drug metabolism [11]: Metabolite detected
Drug metabolism [12]: Metabolite detected
inhibition at 10 µM [1]: 28%
Drug metabolism [13]: 93%
Drug metabolism [14]: Metabolite detected
Activity [15]: Active
inhibition at 10 µM [16]: 54%
Drug metabolism [17]: 99%
Drug metabolism [18]: Metabolite detected
Drug metabolism [19]: Metabolite detected
Activity [20]: 74%
Activity [21]: Active
Drug metabolism [22]: Metabolite detected
Drug metabolism [23]: Metabolite detected
Activity [24]: 160%
Drug metabolism [25]: Metabolite detected
Activity [26]: Active
Drug metabolism [27]: Metabolite detected
Activity [28]: Non-Toxic
Activity [29]: Active
Activity [2]: 15%
Drug metabolism [30]: Metabolite detected
Activity [31]: Active
Activity [32]: Active
Drug metabolism [33]: Metabolite detected
Drug metabolism [34]: 98.6%
Drug metabolism [35]: Metabolite detected
Drug metabolism [36]: Metabolite detected
Drug metabolism [37]: Metabolite detected
Drug metabolism [38]: 97.6%
Drug metabolism [39]: Metabolite detected
Activity [40]: Active
Activity [41]: Active
Drug metabolism [42]: Metabolite detected
Activity [43]: Active
Drug metabolism [44]: Metabolite detected
Stability [45]: Stable
Drug metabolism [46]: Metabolite detected
Drug metabolism [47]: 99.2%
Drug metabolism [48]: Metabolite_Detected
Drug metabolism [49]: Metabolite detected
Drug metabolism [50]: Metabolite_Detected
Drug metabolism [51]: Metabolite detected
Activity [52]: Active
Drug metabolism [53]: Metabolite detected
Drug metabolism [54]: Metabolite detected
Drug metabolism [55]: Metabolite detected
Stability [56]: Stable
Drug metabolism [57]: Metabolite detected
Drug metabolism [58]: 96.9%
Drug metabolism [59]: Metabolite detected
Drug metabolism [60]: Metabolite detected
Activity [61]: Active
Drug metabolism [62]: Metabolite detected
Activity [63]: Active
Drug metabolism [64]: Metabolite detected
